Test system: 931267-113-T-J1-PDC KRAS spheroid with HUVEC/MSC, viability
Assay: Anticancer human tumor 931267-113-T-J1-PDC patient-derived colon adenocarcinoma cell line growth inhibition [KRAS2]
Conditions: for IC50: curve of first compound; for viability, T/C: stronger effect = lower value
From the text: Multicellular complex tumor spheroid response to RAS pathway inhibitors in combination with a targeted agents in patient-derived cell lines with oncogenic KRAS variants from multiple cancer types
A high-throughput screen of multi-cell type tumor spheroids was designed to identify active combinations of targeted small molecules and KRAS pathway inhibitors. Complex spheroids include a stromal component modeled by human endothelial cells (HUVEC) and fibroblasts modeled by human mesenchymal stem cells (MSCs). The concentration ranges selected for each drug and investigational agent were based upon clinically achievable concentrations if the clinical Cmax of the agent was known.
Compounds. The drugs and investigational agents: BI-3406 (NSC825286), BAY-293 (NSC824723), batoprotafib (TNO155; NSC825523), sotorasib (AMG 510; NSC818433), MRTX1257 (NSC819558), elimusertib (BAY 1895344; NSC800525), molibresib (GSK525762; NSC774829), temuterkib (LY3214996; NSC803410), venetoclax (NSC766270), alisertib (NSC759677), olaparib (NSC753686), talazoparib (NSC767125), erdafitinib (NSC781556), ipatasertib (NSC767898), cabozantinib (NSC761068), nintedanib (NSC756659), abemaciclib (NSC768073), docetaxel (NSC628503), trametinib (NSC758246), and sapanisertib (NSC764658) were obtained from the National Cancer Institute (NCI) Developmental Therapeutics Program Chemical Repository. The FDA-approved anticancer drug set is available from the Developmental Therapeutics Program. […] The stock solutions were prepared in dimethyl sulfoxide (DMSO, Sigma-Aldrich, St. Louis, MO, cat. D2650) at 800-fold the tested concentration and stored at -70 degrees C prior to their use. All drugs and investigational agents were tested over a range starting from a high concentration at or near the clinical Cmax and decreasing in half-log increments. If the clinical Cmax for an agent had not been determined, the highest concentration tested was 10 microM.
Cell Culture. All cells were maintained in an incubator at 37 degrees C and 5% CO2 with 95% humidity. The PDC lines were cultured according to standard operating procedures established by the NCI PDMR (https://pdmr.cancer.gov/sops/default.htm). Briefly, all PDCs were thawed and cultured in Matrigel-coated flasks prepared with a working solution of 1X Ham's F-12 nutrient mix, without supplementation (Invitrogen, Waltham, MA, cat. 11765054), 100 U/mL penicillin-streptomycin (Invitrogen, cat. 15140122), and 2.5% Matrigel (Corning Inc., Corning, NY, cat. 354248) for the first three passages. All PDCs were cultured in complete DMEM/F-12 media containing advanced DMEM/F-12 (Invitrogen, cat. 12634028), 4.9% defined fetal bovine serum, heat inactivated (HyClone Laboratories Inc., Logan, UT, cat. SH30070.03HI), 389 ng/mL hydrocortisone (Sigma-Aldrich, cat. H4001), 9.7 ng/mL human EGF recombinant protein (Invitrogen, cat. PHG0313), 23.4 microg/mL adenine (Sigma-Aldrich, cat. A2786), 97.3 U/mL penicillin-streptomycin (Invitrogen, cat. 15140122), 1.9 mM L-glutamine (Invitrogen, cat. 25030081), and 9.7 microM Y-27632 dihydrochloride (Tocris Bioscience, Bristol, United Kingdom, cat. 1254). The PDCs were cultured in complete DMEM/F12 media without 9.7 microM Y-27632 dihydrochloride for at least two passages prior to the screen. The established cell line HOP-62 was cultured in RPMI 1640 medium, HEPES (Invitrogen, cat. 22400105) with 10% defined fetal bovine serum (HyClone Laboratories Inc., cat. SH30070.03) and 2 mM L-glutamine (Invitrogen, cat. 25030081). The pooled donor HUVEC were cultured in endothelial cell growth medium 2 (PromoCell, Heidelberg, Germany, cat. C-22011) and the hMSC were cultured in mesenchymal stem cell growth medium 2 (PromoCell, cat. C-28009). For all experiments, HUVEC and hMSC were used at passages </=5, while the malignant cell lines were used at passages </=15. […]

[1] = second compound 0.1 µM, first compound 0.0316 µM
[2] = second compound 0.1 µM, first compound 0.1 µM
[3] = second compound 0.1 µM, first compound 0.316 µM
[4] = second compound 0.1 µM, first compound 1 µM
[5] = second compound 0.1 µM, first compound 3.16 µM
[6] = second compound 0.1 µM, first compound 10 µM
[7] = second compound 0.316 µM, first compound 0.0316 µM
[8] = second compound 0.316 µM, first compound 0.1 µM
[9] = second compound 0.316 µM, first compound 0.316 µM
[10] = second compound 0.316 µM, first compound 1 µM
[11] = second compound 0.316 µM, first compound 3.16 µM
[12] = second compound 0.316 µM, first compound 10 µM
[13] = second compound 1 µM, first compound 0.0316 µM
[14] = second compound 1 µM, first compound 0.1 µM
[15] = second compound 1 µM, first compound 0.316 µM
[16] = second compound 1 µM, first compound 1 µM
[17] = second compound 1 µM, first compound 3.16 µM
[18] = second compound 1 µM, first compound 10 µM
[19] = second compound 3.16 µM, first compound 0.0316 µM
[20] = second compound 3.16 µM, first compound 0.1 µM
[21] = second compound 3.16 µM, first compound 0.316 µM
[22] = second compound 3.16 µM, first compound 1 µM
[23] = second compound 3.16 µM, first compound 3.16 µM
[24] = second compound 3.16 µM, first compound 10 µM
[25] = second compound 10 µM, first compound 0.0316 µM
[26] = second compound 10 µM, first compound 0.1 µM
[27] = second compound 10 µM, first compound 0.316 µM
[28] = second compound 10 µM, first compound 1 µM
[29] = second compound 10 µM, first compound 3.16 µM
[30] = second compound 10 µM, first compound 10 µM
[31] = second compound 0.1 µM, first compound 0.000316 µM
[32] = second compound 0.1 µM, first compound 0.001 µM
[33] = second compound 0.1 µM, first compound 0.00316 µM
[34] = second compound 0.1 µM, first compound 0.01 µM
[35] = second compound 0.316 µM, first compound 0.000316 µM
[36] = second compound 0.316 µM, first compound 0.001 µM
[37] = second compound 0.316 µM, first compound 0.00316 µM
[38] = second compound 0.316 µM, first compound 0.01 µM
[39] = second compound 1 µM, first compound 0.000316 µM
[40] = second compound 1 µM, first compound 0.001 µM
[41] = second compound 1 µM, first compound 0.00316 µM
[42] = second compound 1 µM, first compound 0.01 µM
[43] = second compound 3.16 µM, first compound 0.000316 µM
[44] = second compound 3.16 µM, first compound 0.001 µM
[45] = second compound 3.16 µM, first compound 0.00316 µM
[46] = second compound 3.16 µM, first compound 0.01 µM
[47] = second compound 10 µM, first compound 0.000316 µM
[48] = second compound 10 µM, first compound 0.001 µM
[49] = second compound 10 µM, first compound 0.00316 µM
[50] = second compound 10 µM, first compound 0.01 µM
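Also: compound exposure lasted 7 days before the readout.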
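For viability, T/C in this document: 100% = DMSO vehicle control viability.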

| Compound | IC50 (second compound 0.1 µM) | IC50 (second compound 0.316 µM) | IC50 (second compound 1 µM) | IC50 (second compound 3.16 µM) | IC50 (second compound 10 µM) | viability, T/C [1] | viability, T/C [2] | viability, T/C [3] | viability, T/C [4] | viability, T/C [5] | viability, T/C [6] | viability, T/C [7] | viability, T/C [8] | viability, T/C [9] | viability, T/C [13] | viability, T/C [14] | viability, T/C [19] | viability, T/C [20] | viability, T/C [25] | viability, T/C [26] | further results |
| --- | --- | --- | --- | --- | --- | --- | --- | --- | --- | --- | --- | --- | --- | --- | --- | --- | --- | --- | --- | --- | --- |
| CC(C)NCC(C(=O)N1CCN(c2ncnc3c2C(C)CC3O)CC1)c1ccc(Cl)cc1 (stereo not given) + C=CC(=O)N1CCN(c2nc(=O)n(-c3c(C)ccnc3C(C)C)c3nc(-c4c(O)cccc4F)c(F)cc23)C(C)C1 | 6740 nM | 5610 nM | 4630 nM | 6030 nM | 1810 nM | 109% | 97.2% | 85.8% | 89.1% | 71.7% | 38.5% | 95.5% | 83.2% | 80.2% | 95.9% | 96% | 83.7% | 90.6% | 81.4% | 71.4% | viability, T/C [10]: 75.1%; viability, T/C [11]: 62.5%; viability, T/C [12]: 38.2%; viability, T/C [15]: 76.8%; viability, T/C [16]: 71.2%; viability, T/C [17]: 68%; viability, T/C [18]: 28.8%; viability, T/C [21]: 80.6%; viability, T/C [22]: 79.1%; viability, T/C [23]: 64.7%; viability, T/C [24]: 38.3%; viability, T/C [27]: 70.5%; viability, T/C [28]: 49.7%; viability, T/C [29]: 50.7%; viability, T/C [30]: 22.4% |
| CC(C)n1nc(-c2ccc3oc(N)nc3c2)c2c(N)ncnc21 + C=CC(=O)N1CCN(c2nc(=O)n(-c3c(C)ccnc3C(C)C)c3nc(-c4c(O)cccc4F)c(F)cc23)C(C)C1 | 10.8 nM | 9.04 nM | 7.94 nM | 9.47 nM | 8.24 nM | 34.3% | 26.7% | – | – | – | – | 33.6% | 27.2% | – | 27.9% | 25.1% | 28.9% | 22.3% | 25.1% | 22% | viability, T/C [31]: 106%; viability, T/C [32]: 89.4%; viability, T/C [33]: 83.5%; viability, T/C [34]: 48.2%; viability, T/C [35]: 116%; viability, T/C [36]: 75.7%; viability, T/C [37]: 77.4%; viability, T/C [38]: 44.8%; viability, T/C [39]: 100%; viability, T/C [40]: 117%; viability, T/C [41]: 87.6%; viability, T/C [42]: 41.2%; viability, T/C [43]: 108%; viability, T/C [44]: 94.4%; viability, T/C [45]: 95.6%; viability, T/C [46]: 47.1%; viability, T/C [47]: 101%; viability, T/C [48]: 86.4%; viability, T/C [49]: 69.7%; viability, T/C [50]: 48.4% |
| CC1(C)CCC(CN2CCN(c3ccc(C(=O)NS(=O)(=O)c4ccc(NCC5CCOCC5)c([N+](=O)[O-])c4)c(Oc4cnc5[nH]ccc5c4)c3)CC2)=C(c2ccc(Cl)cc2)C1 + C=CC(=O)N1CCN(c2nc(=O)n(-c3c(C)ccnc3C(C)C)c3nc(-c4c(O)cccc4F)c(F)cc23)C(C)C1 | 2240 nM | 1820 nM | 1990 nM | 2120 nM | 1770 nM | 107% | 85% | 84.2% | 103% | 30.8% | 5.11% | 86.8% | 102% | 96.8% | 86.5% | 104% | 76.4% | 98% | 98.5% | 75.2% | viability, T/C [10]: 71.6%; viability, T/C [11]: 29.5%; viability, T/C [12]: 10.2%; viability, T/C [15]: 79.9%; viability, T/C [16]: 91.7%; viability, T/C [17]: 22.5%; viability, T/C [18]: 2.37%; viability, T/C [21]: 109%; viability, T/C [22]: 99%; viability, T/C [23]: 25.7%; viability, T/C [24]: 8.95%; viability, T/C [27]: 83.1%; viability, T/C [28]: 76.5%; viability, T/C [29]: 23.1%; viability, T/C [30]: 3.34% |
| Cn1ncnc1[C@H]1c2n[nH]c(=O)c3cc(F)cc(c23)N[C@@H]1c1ccc(F)cc1 + C=CC(=O)N1CCN(c2nc(=O)n(-c3c(C)ccnc3C(C)C)c3nc(-c4c(O)cccc4F)c(F)cc23)C(C)C1 | > 100 nM | > 100 nM | > 100 nM | > 100 nM | > 100 nM | 102% | 93% | – | – | – | – | 98.9% | 72.7% | – | 94.6% | 80.8% | 90.3% | 89.8% | 96% | 102% | viability, T/C [31]: 106%; viability, T/C [32]: 98.3%; viability, T/C [33]: 81.8%; viability, T/C [34]: 92.3%; viability, T/C [35]: 110%; viability, T/C [36]: 110%; viability, T/C [37]: 101%; viability, T/C [38]: 105%; viability, T/C [39]: 117%; viability, T/C [40]: 107%; viability, T/C [41]: 93.1%; viability, T/C [42]: 100%; viability, T/C [43]: 97.7%; viability, T/C [44]: 106%; viability, T/C [45]: 98.8%; viability, T/C [46]: 85.1%; viability, T/C [47]: 117%; viability, T/C [48]: 103%; viability, T/C [49]: 84.3%; viability, T/C [50]: 99.8% |
